# Laboratory results from ChEMBL document CHEMBL6177963, “Development of acylhydrazone linked thiazoles as non-covalent dual inhibitors of SARS-CoV-2 proteases” (Eur J Med Chem, 2025).
# Active and inactive are the calls of the source. The calls are words filed in the database; no cut-off is given here.
# Columns and labels:
# [1] = biological target: Chymotrypsin (Homo sapiens) (UniProt Q99895+P17538+P40313+Q6GPI1); experiment: Inhibition of Chymotrypsin (unknown origin) assessed as BSA digestion; assay type: protein assay
# [2] = biological target: Replicase polyprotein 1ab (Severe acute respiratory syndrome coronavirus 2) (UniProt P0DTD1); experiment: Binding affinity to SARS-CoV-2 PLpro assessed as thermal stability by measuring melting temperature of half of the proteins unfolded by differential scanning fluorimetry (DSF) (reference value: 45.79 degC)
# [3] = biological target: Replicase polyprotein 1ab (Severe acute respiratory syndrome coronavirus 2) (UniProt P0DTD1); experiment: Non-covalent inhibition of SARS-CoV-2 PLpro by Lineweaver-Burk Plot analysis
# SARS-CoV-2 [4] = experiment: Antiviral activity against SARS-CoV-2 infected in African green monkey Vero E6 cells assessed as viral load reduction at 4 uM by measuring viral RNA measured up to 72 hrs by RT-PCR analysis relative to control; assay type: functional, Severe acute respiratory syndrome coronavirus 2, Vero C1008; parameters: scale not given: the % may be the effect or the level left
# SARS-CoV-2 [5] = experiment: Antiviral activity against SARS-CoV-2 infected in African green monkey Vero E6 cells assessed as viral reduction by measuring viral RNA measured up to 72 hrs by RT-PCR analysis; assay type: functional, organism-based; conditions: Severe acute respiratory syndrome coronavirus 2, SARS-CoV-2, Vero C1008, 72 h
# [6] = Cytotoxicity against African green monkey Vero E6 cells assessed as cell viability at 100 uM measured after 48 hrs by MTT assay relative to control; assay type: toxicity, cell-based, Vero C1008; conditions: chlorocebus sabaeus, read-out: Activity
# SARS-CoV-2 [7] = experiment: Antiviral activity against SARS-CoV-2 infected in African green monkey Vero E6 cells assessed as viral load reduction at 0.125 uM by measuring viral RNA measured up to 72 hrs by RT-PCR analysis relative to control; assay type: functional, Severe acute respiratory syndrome coronavirus 2, Vero C1008; parameters: scale not given: the % may be the effect or the level left
# [8] = tested on: Severe acute respiratory syndrome coronavirus 2; experiment: Binding affinity to SARS-CoV-2 MPro assessed as thermal stability by measuring melting temperature of half of the proteins unfolded by differential scanning fluorimetry (DSF) (reference value: 52.46 degC)
# [9] = biological target: Replicase polyprotein 1ab (Severe acute respiratory syndrome coronavirus 2, UniProt P0DTD1); experiment: Inhibition of recombinant SARS-CoV-2 PLpro using TLKGGI-AMC as substrate assessed as assessed as inhibition constant ny measuring fluorescence signal measured after 15 mins
# [10] = Cytotoxicity against human HEK293 cells assessed as cell viability measured after 48 hrs by MTT assay; assay type: toxicity, cell-based
# [11] = biological target: Replicase polyprotein 1ab (Severe acute respiratory syndrome coronavirus 2) (UniProt P0DTD1); experiment: Inhibition of recombinant SARS-CoV-2 PLpro using TLKGGI-AMC as substrate assessed as assessed as inhibition constant ny measuring fluorescence signal at 10 uM measured after 15 mins relative to control
# SARS-CoV-2 [12] = experiment: Anti-viral activity against SARS-CoV-2 BavPat1 infected in Vero E6 cells assessed as inhibition of viral RNA replication; assay type: functional, organism-based; conditions: Severe acute respiratory syndrome coronavirus 2, BavPat1, Vero C1008
# [13] = biological target: Replicase polyprotein 1ab (Severe acute respiratory syndrome coronavirus 2) (UniProt P0DTD1); experiment: Covalent binding affinity to SARS-CoV-2 PLpro assessed as change in molecular weight by Mass spectrometry
# [14] = tested on: Severe acute respiratory syndrome coronavirus 2; experiment: Non-covalent inhibition of SARS-CoV-2 MPro by Lineweaver-Burk Plot analysis
# [15] = Acute toxicity in rat assessed as change in body weight at 175 to 2000 mg/kg, po measured for 14 days; assay type: organism-based; conditions: in vivo, 336 h, dose 175-2000 mg/kg, time 14 day
# [16] = biological target: Replicase polyprotein 1ab (Severe acute respiratory syndrome coronavirus 2) (UniProt P0DTD1); experiment: Non-covalent binding affinity to SARS-CoV-2 PLpro assessed change in molecular weight by Mass spectrometry
# [17] = biological target: Replicase polyprotein 1ab (Severe acute respiratory syndrome coronavirus 2) (UniProt P0DTD1); experiment: Reversible inhibition of SARS-CoV-2 PLpro assessed as enzyme activity by dialysis; parameters: scale not given: the % may be the effect or the level left
# [18] = Acute toxicity in rat assessed as toxicity at 175 to 2000 mg/kg, po measured for 14 days; assay type: organism-based; conditions: in vivo, dose 175-2000 mg/kg, time 14 day
# [19] = tested on: Severe acute respiratory syndrome coronavirus 2; experiment: Reversible inhibition of SARS-CoV-2 MPro assessed as enzyme activity by dialysis; parameters: scale not given: the % may be the effect or the level left
# [20] = Acute toxicity in rat assessed as morphological changes in liver in portal, periportal, and centrilobular regions at 175 to 2000 mg/kg, po measured for 14 days by Hand E staining based analysis; assay type: organism-based; conditions: in vivo, 336 h, dose 175-2000 mg/kg, time 14 day
# SARS-CoV-2 [21] = experiment: Anti-viral activity against SARS-CoV-2 Calu-3 by direct yield reduction assay (DYRA); assay type: functional, organism-based; conditions: Severe acute respiratory syndrome coronavirus 2, Calu-3, Calu-3
# [22] = tested on: Severe acute respiratory syndrome coronavirus 2; experiment: Covalent binding affinity to SARS-CoV-2 MPro assessed as change in molecular weight by Mass spectrometry
# [23] = tested on: Severe acute respiratory syndrome coronavirus 2; experiment: Non-covalent binding affinity to SARS-CoV-2 MPro assessed change in molecular weight by Mass spectrometry
Compound,inhibition [1],Tm [2] [°C],"viability at 48 h, 100 µM [6] [%]",Ki [9],IC50 at 48 h [10] [nM],inhibition [11] [%],Ki ([9]; read-out: Ki) [nM],further results
CCOC(=O)c1sc(NNC(=O)c2ccc(Cl)cc2)nc1C,inactive,44.7,92.5,Not_active,45500,,,Activity [3]: Active; Activity (SARS-CoV-2 [4]): >80%; EC50 (SARS-CoV-2 [5]): 72 nM; Activity (SARS-CoV-2 [7]): >70%; Tm [8]: 52.1 °C
O=C(NNc1nc(-c2ccc(Cl)cc2)cs1)c1ccc(Br)cc1,,,,Not_active,,< 50,,
CCOC(=O)c1sc(NNC(=O)c2ccccc2)nc1C,,,,Not_active,,< 50,,
Cc1ccc(-c2csc(NNC(=O)c3ccc(Br)cc3)n2)cc1,,,,Not_active,,< 50,,
O=C(O)c1ccccc1/C=N/Nc1ncc(-c2ccccc2Cl)s1,,,,,,,,EC50 (SARS-CoV-2 [12]): 1590 nM
O=C(NNc1nc(-c2ccc(Br)cc2)cs1)c1ccccc1,,,,Not_active,,< 50,,
CCOC(=O)c1sc(NNC(=O)c2ccc(F)cc2)nc1C,,,,Not_active,,< 50,,
Oc1ccc(/C=N/Nc2nc(-c3ccc(Cl)cc3)cs2)cc1,inactive,44.3,91,,194000,,290,Activity [3]: Active; Tm [8]: 51.4 °C
O=C(NNc1ncc(-c2ccc(Cl)cc2)s1)c1ccc2ccccc2c1,,,,,,,2130,
CCOC(=O)c1sc(NNC(=O)c2ccc([N+](=O)[O-])cc2)nc1C,inactive,41.5,89.2,,25900,,450,Activity [13]: inactive; Activity [14]: Active; Activity [15]: Non-toxic; Activity [3]: Active; Activity [16]: Active; Activity (SARS-CoV-2 [4]): >80%; Activity [17]: > 90%; LD50 at 336 h [18]: > 2000 mg/kg; EC50 (SARS-CoV-2 [5]): 97 nM; Tm [8]: 51 °C; Activity [19]: > 90%; Activity [20]: Non-toxic
CCOC(=O)c1sc(NNC(=O)/C=C/c2ccccc2)nc1C,inactive,41.5,87.5,,180000,,200,"Activity [13]: inactive; Activity [14]: Active; Activity [15]: Non-toxic; Activity [3]: Active; Activity [16]: Active; Activity (SARS-CoV-2 [4]): 56%; Activity [17]: > 90%; LD50 at 336 h [18]: > 2000 mg/kg; EC50 (SARS-CoV-2 [5]): 848 nM; Activity (SARS-CoV-2 [7]; Severe acute respiratory syndrome coronavirus 2, Vero C1008): inactive; Tm [8]: 49.9 °C; Activity [19]: > 90%; Activity [20]: Non-toxic"
Cc1ccc(-c2csc(NNC(=O)c3ccc([N+](=O)[O-])cc3)n2)cc1,inactive,41.4,82.3,,6690,,1250,Activity (SARS-CoV-2 [4]): >80%; EC50 (SARS-CoV-2 [5]): 126 nM; Tm [8]: 52.6 °C
O=C(NNc1nc(-c2ccc(Br)cc2)cs1)c1ccc(Br)cc1,,,,Not_active,,< 50,,
O=C(NNc1nc(-c2ccc(Cl)cc2)cs1)c1ccc(F)cc1,,47.1,86.5,,41200,,180,Activity (SARS-CoV-2 [4]): >80%; EC50 (SARS-CoV-2 [5]): 41 nM
CCOC(=O)c1sc(NNC(=O)c2cccs2)nc1C,inactive,41.1,87.9,,45800,,230,Activity [14]: Active; Activity [3]: Active; Activity (SARS-CoV-2 [4]): >70%; EC50 (SARS-CoV-2 [5]): 118 nM; Tm [8]: 49.8 °C
Cc1ccc(-c2csc(NNC(=O)c3ccc(Cl)cc3)n2)cc1,,,,Not_active,,< 50,,
CCOC(=O)c1sc(NNC(=O)c2ccc(C)cc2)nc1C,,,,,,< 50,230,
CCOC(=O)c1sc(NNC(=O)c2cccc(Br)c2)nc1C,,,,Not_active,,< 50,,
CCOC(=O)c1sc(NNC(=O)c2ccc3ccccc3c2)nc1C,,,,,,,660,
O=C(NNc1nc(-c2ccc(Br)cc2)cs1)c1ccc([N+](=O)[O-])cc1,inactive,,99.5,,,,4220,

Compound,inhibition [1],Tm [2] [°C],"viability at 48 h, 100 µM [6] [%]",Ki [9],IC50 at 48 h [10] [nM],inhibition [11] [%],Ki ([9]; read-out: Ki) [nM],further results
Cc1ccc(C(=O)NNc2nc(-c3ccc(Cl)cc3)cs2)cc1,inactive,45.8,91.5,,41100,,240,Activity [3]: Active; Activity (SARS-CoV-2 [4]): >70%; EC50 (SARS-CoV-2 [5]): 68 nM; Tm [8]: 51.8 °C
O=C(NNc1nc(-c2ccc(Cl)cc2)cs1)c1ccc(Cl)cc1,,47.5,87,,14000,,500,Activity (SARS-CoV-2 [4]): >80%; EC50 (SARS-CoV-2 [5]): 64 nM
Clc1nc2ccccc2cc1/C=N/Nc1nc(-c2ccccc2)cs1,,,,Not_active,,< 50,,
Cc1ccc(C(=O)NNc2nc(-c3ccc(Br)cc3)cs2)cc1,,,,Not_active,,< 50,,
CN(/N=C/c1ccccc1C(=O)O)c1ncc(-c2ccccc2Cl)s1,,,,,,,,EC50 (SARS-CoV-2 [12]): 14 nM
Cc1ccc(C(=O)NNc2nc(-c3ccc(C)cc3)cs2)cc1,,,,Not_active,,< 50,,
Cc1nc(NC(=O)C(C)(C)C)sc1-c1cnc(N(CC(C)(C)O)C2CCCCC2)s1,,,,,,,,IC50 (SARS-CoV-2 [21]): 1570 nM
Cc1ccc(-c2csc(NNC(=O)c3ccc(F)cc3)n2)cc1,inactive,47.1,92.1,,25300,,340,Activity (SARS-CoV-2 [4]): >70%; EC50 (SARS-CoV-2 [5]): 38 nM; Activity (SARS-CoV-2 [7]): >70%
CCOC(=O)c1sc(N/N=C/c2cc3ccccc3nc2Cl)nc1C,,,,Not_active,,,,
CCOC(=O)c1sc(NNC(=O)c2ccccc2OC)nc1C,,,,Not_active,,,,
O=c1c2ccccc2[se]n1-c1ccccc1 [EBSELEN],inactive,45.4,,,,,,Activity [22]: Active; Tm [8]: 52.4 °C; Activity [23]: inactive
O=C(NNc1nc(-c2ccc(Br)cc2)cs1)c1ccc(F)cc1,inactive,45.9,91.8,,10500,,150,Activity [14]: Active; Activity [3]: Active; Tm [8]: 51.1 °C
COC(=O)c1sc(NNC(=O)c2ccc([N+](=O)[O-])cc2)nc1C,,,,Not_active,,< 50,,
CC(=O)Oc1ccccc1C(=O)Nc1ncc([N+](=O)[O-])s1 [NITAZOXANIDE],,,,,,,,EC50 (SARS-CoV-2 [12]): 7480 nM
O=C(NNc1nc(-c2ccc(Br)cc2)cs1)c1ccc(Cl)cc1,inactive,,86.7,,,,1720,
CCOC(=O)c1sc(NNC(=O)c2ccco2)nc1C,,,,Not_active,,< 50,,
CCOC(=O)c1sc(NNC(=O)c2ccc(Br)cc2)nc1C,inactive,41.5,86.9,,219000,,500,Activity [14]: Active; Activity [3]: Active; Activity (SARS-CoV-2 [4]): >80%; EC50 (SARS-CoV-2 [5]): 116 nM; Tm [8]: 49.7 °C
O=C(NNc1ncc(-c2ccc(Cl)cc2)s1)c1cccc(Cl)c1,,,,,,,4230,
CCOC(=O)c1sc(NNC(=O)c2ccccc2C)nc1C,,,,Not_active,,< 50,,
CCOC(=O)c1sc(NNC(=O)c2cccc(Cl)c2)nc1C,,,,Not_active,,< 50,,
